Reference: patent US3981814A, “Bacteriostatic substituted benzanilide compositions and methods for their use” (Givaudan Corporation, priority 1975, dated 1976)
In brackets after ≈: the same amount, converted by molar mass.

tested on: Staphylococcus aureus; experiment: In vitro soap bacteriostatic test (agar dilution, spot inoculation, 35°, 48 hours); format: cell-based; conditions: Staphylococcus aureus, without soap, read-out: Compound Activity Without Soap: minimum concentration where S. aureus growth is completely inhibited
Protocol: The antibacterial properties of the compounds prepared in Examples 1 - 14 were tested in soap. The in vitro soap bacteriostatic tests were conducted as follows: The compound is dissolved in a suitable solvent, usually dimethylformamide, to give a 6% solution. One-half ml. aliquot was added to 100 ml. of 3% solution of bar soap stock solution. The solid soap used was a neutral white toilet soap of the "LUX" type. The fatty acids in this soap were of the following composition: This yields an aqueous soap solution containing 30,000 mcg./ml. soap and 300 mcg./ml. compound. The soap/compound ratio in the latter is 100/l. A two-fold serial dilution series is prepared with this solution using sterile distilled water in test tubes such that the final volume in each tube is 2.0 ml. To each test tube is added 28 ml. of molten Dextrose Trypticase Extract Agar (B.B.L.). The tube contents were poured into sterile Petri plates and allowed to harden. The highest final concentration of compound in the serial dilution series is 20 mcg./ml. Plates were spot inoculated with a broth culture of Staphylococcus aureus and incubated at 35° for 48 hours. The lowest concentration completely inhibiting growth of the test organism, in mcg./ml. is recorded as the bacteriostatic concentration of the compound. Tests in the absence of soap are made in a similar manner except that all dilutions are made in solvent. The final concentration in the agar should not be greater than 5%. The results of these tests with the compounds of the present invention as compared with compounds having chemical structures closely related to the compounds of the present invention (designated by the symbol "C") are set forth in the Table. Column 1 contains the data as to the activity of the test solution without soap; column 2 refers to tests in which the ratio of soap to compound is 100:1. […] Growth is observed at the next lower concentration.

| SMILES | MIC [µg/mL] |
| --- | --- |
| O=C(Nc1cccc(C(F)(F)F)c1)c1ccc(Cl)cc1 [Compound 1, 4-Chloro-3'-(trifluoromethyl) benzanilide] | 10 (≈ 33.4 µM) |
| O=C(Nc1cccc(C(F)(F)F)c1)c1cccc(Cl)c1 [Compound 2] | > 20 |
| O=C(Nc1cccc(C(F)(F)F)c1)c1ccc(Br)cc1 [Compound 3] | > 20 |
| O=C(Nc1cccc(C(F)(F)F)c1)c1cccc(Br)c1 [Compound 4] | > 20 |
| O=C(Nc1cccc(C(F)(F)F)c1)c1ccc(Cl)c(Cl)c1 [Compound 5] | > 20 |
| O=C(Nc1cccc(C(F)(F)F)c1)c1cc(Cl)cc(Cl)c1 [Compound 6] | > 20 |
| O=C(Nc1ccc(Cl)c(C(F)(F)F)c1)c1ccc(C(F)(F)F)cc1 [Compound 7, 4'-Chloro-α,α,α,α',α ',α ', -hexafluoro-p-tolu-m-toluidide] | 0.625 (≈ 1.7 µM) |
| O=C(Nc1ccc(Cl)c(C(F)(F)F)c1)c1ccc(Cl)cc1 [Compound 8, 4,4'-Dichloro-3'(trifluoromethyl) benzanilide] | 2.5 (≈ 7.48 µM) |
| O=C(Nc1ccc(Cl)c(C(F)(F)F)c1)c1cccc(Cl)c1 [Compound 9, 3,4'-dichloro-α,α,α-trifluoro-m-benzo-toluidide] | > 20 |
| O=C(Nc1ccc(Cl)c(C(F)(F)F)c1)c1ccc(Br)cc1 [Compound 10, 4-bromo-4'-chloro-α,α,α-trifluoro-m-benzotoluidide] | 0.625 (≈ 1.65 µM) |
| O=C(Nc1ccc(Cl)c(C(F)(F)F)c1)c1cccc(Br)c1 [Compound 11] | > 20 |
| O=C(Nc1ccc(Cl)c(C(F)(F)F)c1)c1ccc(Cl)c(Cl)c1 [Compound 12] | > 20 |
| O=C(Nc1ccc(Br)c(C(F)(F)F)c1)c1cccc(Br)c1 [Compound 14, 3,4'-dibromo-α,α,α-trifluoro-m-benzotoluidide] | > 20 |
| O=C(Nc1ccc(Br)c(C(F)(F)F)c1)c1ccc(Cl)cc1 [Compound 15, 4'-bromo-4-chloro-α,α,α-trifluoro-m-benzotoluidide] | 0.625 (≈ 1.65 µM) |
| O=C(Nc1ccc(Br)c(C(F)(F)F)c1)c1ccc(Cl)c(Cl)c1 [Compound 16, 4'-bromo-3,4-dichloro-α,α,α-trifluoro-m-benzotoluidide] | > 20 |
| O=C(Nc1ccc(F)c(C(F)(F)F)c1)c1ccc(Cl)cc1 [Compound 17, 4-chloro-α,α,α, 4'-tetrafluoro-m-benzotoluidide] | > 20 |
| O=C(Nc1ccc(F)c(C(F)(F)F)c1)c1ccc(Br)cc1 [Compound 18, 4-bromo-α,α,α, 4' -tetrafluoro-m-benzotoluidide] | > 20 |
| O=C(Nc1cc(C(F)(F)F)cc(C(F)(F)F)c1)c1ccc(Cl)c(Cl)c1 [Compound 21, 3,4-dichloro-α,α,α,α',α',α'-hexafluorobenzo-3',5'-xylidide] | > 20 |
| CC(C)(C)c1ccc(C(=O)Nc2ccc(Cl)c(C(F)(F)F)c2)cc1 [Compound 22] | > 20 |

| SMILES | MIC [µg/mL] |
| --- | --- |
| O=C(Nc1cccc(C(F)(F)F)c1)c1ccccc1Cl [Compound C1] | > 20 |
| O=C(Nc1cccc(C(F)(F)F)c1)c1ccccc1Br [Compound C2] | > 10 |
| O=C(Nc1cccc(C(F)(F)F)c1)c1ccc(F)cc1 [Compound C3] | > 20 |
| O=C(Nc1cccc(C(F)(F)F)c1)c1cccc(C(F)(F)F)c1 [Compound C4] | > 20 |
| O=C(Nc1cccc(C(F)(F)F)c1)c1ccccc1 [Compound C5] | > 20 |
| O=C(Nc1ccccc1C(F)(F)F)c1ccccc1Cl [Compound C8] | > 10 |
| O=C(Nc1ccc(C(F)(F)F)cc1)c1ccc(Cl)cc1 [Compound C9] | > 10 |
| O=C(Nc1ccc(C(F)(F)F)cc1)c1ccc(F)cc1 [Compound C10] | 20 (≈ 70.6 µM) |
| O=C(Nc1ccc(Cl)c(C(F)(F)F)c1)c1cc(Cl)cc(Cl)c1 [Compound C11] | > 10 |
| O=C(Nc1ccc(Cl)c(C(F)(F)F)c1)c1ccccc1Cl [Compound C12] | > 20 |
| O=C(Nc1ccc(Cl)c(C(F)(F)F)c1)c1ccc(F)cc1 [Compound C13] | > 20 |
| O=C(Nc1ccc(Cl)c(C(F)(F)F)c1)c1ccccc1Br [Compound C14] | > 10 |
| O=C(Nc1cc(C(F)(F)F)ccc1Cl)c1ccc(Cl)cc1 [Compound C15] | > 10 |
| O=C(Nc1cc(C(F)(F)F)ccc1Cl)c1cccc(Cl)c1 [Compound C16] | > 10 |
| O=C(Nc1cc(C(F)(F)F)ccc1Cl)c1ccccc1Cl [Compound C17] | > 10 |
| O=C(Nc1cc(C(F)(F)F)ccc1Cl)c1ccc(F)cc1 [Compound C18] | > 10 |
| O=C(Nc1cc(C(F)(F)F)ccc1Cl)c1cccc(Br)c1 [Compound C19] | > 10 |
| O=C(Nc1ccc(Cl)cc1C(F)(F)F)c1ccc(Cl)cc1 [Compound C20] | > 10 |
| O=C(Nc1ccc(Cl)cc1C(F)(F)F)c1cccc(Cl)c1 [Compound C21] | > 10 |

same assay, conditions: with soap, ratio of soap to compound 100:1

| SMILES | Compound Activity With Soap: minimum concentration where S. aureus growth is completely inhibited |
| --- | --- |
| O=C(Nc1cccc(C(F)(F)F)c1)c1ccc(Cl)cc1 [Compound 1, 4-Chloro-3'-(trifluoromethyl) benzanilide] | 0.625 µg/mL |
| O=C(Nc1cccc(C(F)(F)F)c1)c1cccc(Cl)c1 [Compound 2] | 2.5 µg/mL |
| O=C(Nc1cccc(C(F)(F)F)c1)c1ccc(Br)cc1 [Compound 3] | 2.5 µg/mL |
| O=C(Nc1cccc(C(F)(F)F)c1)c1cccc(Br)c1 [Compound 4] | 2.5 µg/mL |
| O=C(Nc1cccc(C(F)(F)F)c1)c1ccc(Cl)c(Cl)c1 [Compound 5] | 2.5 µg/mL |
| O=C(Nc1cccc(C(F)(F)F)c1)c1cc(Cl)cc(Cl)c1 [Compound 6] | 2.5 µg/mL |
| O=C(Nc1ccc(Cl)c(C(F)(F)F)c1)c1ccc(C(F)(F)F)cc1 [Compound 7, 4'-Chloro-α,α,α,α',α ',α ', -hexafluoro-p-tolu-m-toluidide] | 0.312 µg/mL |
| O=C(Nc1ccc(Cl)c(C(F)(F)F)c1)c1ccc(Cl)cc1 [Compound 8, 4,4'-Dichloro-3'(trifluoromethyl) benzanilide] | 0.625 µg/mL |
| O=C(Nc1ccc(Cl)c(C(F)(F)F)c1)c1cccc(Cl)c1 [Compound 9, 3,4'-dichloro-α,α,α-trifluoro-m-benzo-toluidide] | 0.625 µg/mL |
| O=C(Nc1ccc(Cl)c(C(F)(F)F)c1)c1ccc(Br)cc1 [Compound 10, 4-bromo-4'-chloro-α,α,α-trifluoro-m-benzotoluidide] | 0.312 µg/mL |
| O=C(Nc1ccc(Cl)c(C(F)(F)F)c1)c1cccc(Br)c1 [Compound 11] | 2.5 µg/mL |
| O=C(Nc1ccc(Cl)c(C(F)(F)F)c1)c1ccc(Cl)c(Cl)c1 [Compound 12] | 0.312 µg/mL |
| O=C(Nc1ccc(Br)c(C(F)(F)F)c1)c1cccc(Br)c1 [Compound 14, 3,4'-dibromo-α,α,α-trifluoro-m-benzotoluidide] | 1.25 µg/mL |
| O=C(Nc1ccc(Br)c(C(F)(F)F)c1)c1ccc(Cl)cc1 [Compound 15, 4'-bromo-4-chloro-α,α,α-trifluoro-m-benzotoluidide] | 0.625 µg/mL |
| O=C(Nc1ccc(Br)c(C(F)(F)F)c1)c1ccc(Cl)c(Cl)c1 [Compound 16, 4'-bromo-3,4-dichloro-α,α,α-trifluoro-m-benzotoluidide] | 0.312 µg/mL |
| O=C(Nc1ccc(F)c(C(F)(F)F)c1)c1ccc(Cl)cc1 [Compound 17, 4-chloro-α,α,α, 4'-tetrafluoro-m-benzotoluidide] | 1.25 µg/mL |
| O=C(Nc1ccc(F)c(C(F)(F)F)c1)c1ccc(Br)cc1 [Compound 18, 4-bromo-α,α,α, 4' -tetrafluoro-m-benzotoluidide] | 1.25 µg/mL |
| O=C(Nc1cc(C(F)(F)F)cc(C(F)(F)F)c1)c1ccc(Cl)c(Cl)c1 [Compound 21, 3,4-dichloro-α,α,α,α',α',α'-hexafluorobenzo-3',5'-xylidide] | 0.312 µg/mL |
| CC(C)(C)c1ccc(C(=O)Nc2ccc(Cl)c(C(F)(F)F)c2)cc1 [Compound 22] | 2.5 µg/mL |

| SMILES | Compound Activity With Soap: minimum concentration where S. aureus growth is completely inhibited |
| --- | --- |
| O=C(Nc1cccc(C(F)(F)F)c1)c1ccccc1Cl [Compound C1] | 10.0 µg/mL |
| O=C(Nc1cccc(C(F)(F)F)c1)c1ccccc1Br [Compound C2] | B (Inactive at 10 mcg./ml. (highest concentration tested)) |
| O=C(Nc1cccc(C(F)(F)F)c1)c1ccc(F)cc1 [Compound C3] | 10.0 µg/mL |
| O=C(Nc1cccc(C(F)(F)F)c1)c1cccc(C(F)(F)F)c1 [Compound C4] | 10.0 µg/mL |
| O=C(Nc1cccc(C(F)(F)F)c1)c1ccccc1 [Compound C5] | 10.0 µg/mL |
| O=C(Nc1ccccc1C(F)(F)F)c1ccccc1Cl [Compound C8] | B (Inactive at 10 mcg./ml. (highest concentration tested)) |
| O=C(Nc1ccc(C(F)(F)F)cc1)c1ccc(Cl)cc1 [Compound C9] | B (Inactive at 10 mcg./ml. (highest concentration tested)) |
| O=C(Nc1ccc(C(F)(F)F)cc1)c1ccc(F)cc1 [Compound C10] | 5.0 µg/mL |
| O=C(Nc1ccc(Cl)c(C(F)(F)F)c1)c1cc(Cl)cc(Cl)c1 [Compound C11] | B (Inactive at 10 mcg./ml. (highest concentration tested)) |
| O=C(Nc1ccc(Cl)c(C(F)(F)F)c1)c1ccccc1Cl [Compound C12] | 10.0 µg/mL |
| O=C(Nc1ccc(Cl)c(C(F)(F)F)c1)c1ccc(F)cc1 [Compound C13] | 5.0 µg/mL |
| O=C(Nc1ccc(Cl)c(C(F)(F)F)c1)c1ccccc1Br [Compound C14] | B (Inactive at 10 mcg./ml. (highest concentration tested)) |
| O=C(Nc1cc(C(F)(F)F)ccc1Cl)c1ccc(Cl)cc1 [Compound C15] | B (Inactive at 10 mcg./ml. (highest concentration tested)) |
| O=C(Nc1cc(C(F)(F)F)ccc1Cl)c1cccc(Cl)c1 [Compound C16] | B (Inactive at 10 mcg./ml. (highest concentration tested)) |
| O=C(Nc1cc(C(F)(F)F)ccc1Cl)c1ccccc1Cl [Compound C17] | B (Inactive at 10 mcg./ml. (highest concentration tested)) |
| O=C(Nc1cc(C(F)(F)F)ccc1Cl)c1ccc(F)cc1 [Compound C18] | B (Inactive at 10 mcg./ml. (highest concentration tested)) |
| O=C(Nc1cc(C(F)(F)F)ccc1Cl)c1cccc(Br)c1 [Compound C19] | B (Inactive at 10 mcg./ml. (highest concentration tested)) |
| O=C(Nc1ccc(Cl)cc1C(F)(F)F)c1ccc(Cl)cc1 [Compound C20] | B (Inactive at 10 mcg./ml. (highest concentration tested)) |
| O=C(Nc1ccc(Cl)cc1C(F)(F)F)c1cccc(Cl)c1 [Compound C21] | B (Inactive at 10 mcg./ml. (highest concentration tested)) |
